The NIST ThermoML archive (doi:10.1016/j.tca.2010.08.002)

What was measured:
[1] = molar heat capacity at constant pressure; settings: 101.33 kPa, Vacuum adiabatic calorimetry
[2] = for molar entropy: 101.33 kPa, Vacuum adiabatic calorimetry; for Triple point temperature: Adiabatic calorimetry

CCCCn1cc[n+](C)c1.O=S(=O)([O-])C(F)(F)F [1-butyl-3-methylimidazolium trifluoromethanesulfonate]
Settings	molar entropy, [2] [J/K/mol]	molar heat capacity at constant pressure, [1] [J/K/mol]
5 K, Crystal 2	0.4944	1.486
10 K, Crystal 2	3.77	10.2
15 K, Crystal 2	10.39	23.78
20 K, Crystal 2	19.26	38.56
25 K, Crystal 2	29.42	52.98
30 K, Crystal 2	40.29	66.38
35 K, Crystal 2	51.44	78.37
40 K, Crystal 2	62.61	88.95
45 K, Crystal 2	73.65	98.67
50 K, Crystal 2	84.51	107.5
55 K, Crystal 2	95.14	115.5
60 K, Crystal 2	105.5	123
65 K, Crystal 2	115.6	130
70 K, Crystal 2	125.5	136.6
80 K, Crystal 2	144.6	148.9
90 K, Crystal 2	162.8	160
100 K, Crystal 2	180.2	170.5
110 K, Crystal 2	196.9	180.5
120 K, Crystal 1	–	192.4
120 K, Crystal 2	–	192.4
130 K, Crystal 1	228.7	198.6
140 K, Crystal 1	243.7	206.9
150 K, Crystal 1	258.3	216.1
160 K, Crystal 1	272.5	225.6
170 K, Crystal 1	286.5	235.5
180 K, Crystal 1	300.3	245.9
190 K, Crystal 1	313.8	256.7
200 K, Crystal 1	327.3	267.8
210 K, Crystal 1	340.6	279.3
220 K, Crystal 1	353.9	290.9
230 K, Crystal 1	367.1	302.8
240 K, Crystal 1	380.2	314.9
250 K, Crystal 1	393.3	327.1
260 K, Crystal 1	406.4	339.4
270 K, Crystal 1	419.4	351.9
280 K, Crystal 1	432.5	364.5
290 K, Crystal 1	445.5	377.3
290.98 K, Crystal 1	446.8	378.5
290.98 K, Liquid	513.6	423.9
298.15 K, Liquid	523.9	427.7
300 K, Liquid	526.6	428.6
310 K, Liquid	540.7	433.9
320 K, Liquid	554.6	439.2
330 K, Liquid	568.2	444.6
340 K, Liquid	581.5	450
350 K, Liquid	594.7	455.4
360 K, Liquid	607.6	460.9
370 K, Liquid	620.3	466.4

[2]
Settings	Triple point temperature [K]
Crystal 1	290.98
Crystal 2	120
